Reference: patent US9138423B2, “Use of inhibitors of porphobilinogen deaminase in the treatment of congenital erythropoietic porphyria” (Asociación Centro de Investigación Cooperativa en …, priority 2010, dated 2015)

Legend:
[1] = molecular target: porphobilinogen deaminase (PBGD) (Homo sapiens (Human), UniProt P08397); experiment: Enzymatic assay of porphobilinogen deaminase catalytic activity (Lineweaver-Burk, inhibition constants); format: biochemical; settings: for Ki: global data fitting of all values in presence of inhibitor, 37° C., pH 8.0, read-out: Ki (inhibition constant of the catalytic activity of the PBGD)
Method: Obtaining and purifying the enzyme: The enzyme is obtained and purified by following the method published by Millet O et al. (2009) Biochemistry 48: 454-461.
Enzymatic assay: The assay is based on the method described by Jordan (Shoolingin-Jordan P M et al. (1997). Methods in enzymology 281: 327-336) with some modifications. 10 μL of porphobilinogen deaminase (PBGD) at a concentration of 150 μM in 48 μL of buffer (20 mM Tris-HCl pH 8.0, NaCl 150 mM) is preheated at 37° C. for two minutes. If the assay is performed in the presence of an inhibitor, the latter is added in dissolved form into the buffer. 25 μL of the porphobilinogen (PBG) substrate are then added, diluted to different concentrations (0.15, 0.3, 0.45, 0.6, 0.9, 1.2, 1.5, 1.8, 2.1, 2.4, 2.7, 3, 3.3, 3.9 mM) in the aforementioned buffer and are incubated at 37° C. for five minutes. A control assay containing a buffer without substrate (PBG) in the same proportions is performed at the same time. The enzymatic reaction is stopped by means of freezing the samples in liquid nitrogen. Then the mixture is incubated again with 6 μL of 25 mM uroporphyrinogen 3 synthase (U3S) at 37° C. for 30 minutes to transform the pre-uroporphyrinogen into uroporphyrinogen III. The reaction is again stopped by means of freezing in liquid nitrogen. Then the formed […] uroporphyrinogens are oxidized to uroporphyrins by means of adding 25 μL of I2/KI solution and incubation for 10 minutes in ice and darkness. The iodine excess is then bleached by adding 25 μL of saturated sodium metabisulfite solution. […] Finally, different dilutions of the supernatant in 0.1 M HCl are prepared to measure the change of absorbance at 405 nm with respect to the control sample.
Calculation of inhibition constants: Inhibition constants have been calculated from the global data fitting of all values in presence of inhibitor according to the methodologies disclosed in the prior art (Structure and mechanism in protein Science, Alan Fersht, 1999, Ed. Freeman and Co. (New York), Pag. 105-115).

[2] = molecular target: porphobilinogen deaminase of Arabidopsis thaliana (Arabidopsis thaliana (Mouse-ear cress), UniProt Q43316); settings: Arabidopsis thaliana enzyme; non-specific chemical modification; cited from earlier work
[3] = molecular target: Escherichia coli porphobilinogen deaminase (Escherichia coli (strain K12), UniProt P06983); settings: Escherichia coli enzyme; cited from earlier work
Chain of Escherichia coli porphobilinogen deaminase (P06983 whole entry): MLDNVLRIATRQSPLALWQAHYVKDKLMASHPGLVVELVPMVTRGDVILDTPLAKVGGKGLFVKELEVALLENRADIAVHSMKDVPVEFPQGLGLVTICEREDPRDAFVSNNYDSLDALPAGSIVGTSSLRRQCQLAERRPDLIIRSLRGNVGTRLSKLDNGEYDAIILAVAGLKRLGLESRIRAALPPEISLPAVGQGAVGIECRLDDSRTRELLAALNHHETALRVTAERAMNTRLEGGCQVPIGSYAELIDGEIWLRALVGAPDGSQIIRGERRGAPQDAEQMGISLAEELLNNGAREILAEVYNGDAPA

Chain of porphobilinogen deaminase (PBGD) (P08397 whole entry): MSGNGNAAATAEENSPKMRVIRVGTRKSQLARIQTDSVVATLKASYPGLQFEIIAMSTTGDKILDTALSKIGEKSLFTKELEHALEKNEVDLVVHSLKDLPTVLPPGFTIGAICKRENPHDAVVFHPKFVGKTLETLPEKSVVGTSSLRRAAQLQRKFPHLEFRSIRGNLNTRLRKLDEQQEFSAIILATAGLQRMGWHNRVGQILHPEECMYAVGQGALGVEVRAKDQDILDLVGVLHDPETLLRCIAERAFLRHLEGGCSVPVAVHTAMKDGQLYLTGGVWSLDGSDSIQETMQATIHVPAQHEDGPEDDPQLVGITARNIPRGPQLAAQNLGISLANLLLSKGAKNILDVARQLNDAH
Chain of porphobilinogen deaminase of Arabidopsis thaliana (Q43316 63-382): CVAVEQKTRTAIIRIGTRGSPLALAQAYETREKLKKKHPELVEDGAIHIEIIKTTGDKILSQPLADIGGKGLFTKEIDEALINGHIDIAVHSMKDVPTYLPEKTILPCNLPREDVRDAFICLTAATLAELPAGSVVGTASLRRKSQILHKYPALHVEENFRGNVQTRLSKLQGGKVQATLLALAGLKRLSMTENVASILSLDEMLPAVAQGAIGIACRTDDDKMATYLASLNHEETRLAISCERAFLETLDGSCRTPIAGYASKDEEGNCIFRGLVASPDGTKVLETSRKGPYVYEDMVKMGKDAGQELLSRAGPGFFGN

| Compound | Ki [1] [µM] | effect on catalytic activity of porphobilinogen deaminase [2] | further results |
| --- | --- | --- | --- |
| Cc1ccc(C)[nH]1 [2,5-CH3-PYR, 2,5-dimethyl-1H-pyrrole] | 3 |  |  |
| OCCS [2-mercaptoethanol] |  | significantly alter the catalytic activity |  |
| N[C@H](Cc1c[nH]c2ccccc12)C(=O)O [DTRP, 2R-amino-3-(1H-indol-3-yl) propanoic acid] |  |  | type of inhibition of the catalytic activity of PBGD (Lineweaver-Burk plot) ([1]; increasing amounts of inhibitor, change in slope with same intercept): competitive inhibition |
| CCN1C(=O)C=CC1=O [N-ethylmaleimide] |  | low inhibition | effect on catalytic activity of porphobilinogen deaminase [3]: strongly deactivates |
| Cc1c[nH]c(C)c1 [2,4-CH3-PYR, 2,4-dimethyl-1H-pyrrole] | 6 |  |  |
